For data set [1], the system named is Rhopalosiphum padi (cereal aphid). The data set is described as follows: Activity against Rhopalosiphum padi (cereal aphid) on wheat, spray with safener cloquintocet, 6 days after application (Example B1). The format is in vivo. Particulars: 144 h. The method, then: One replicate consisted of 4 wheat plants per pot. […] 9 days after seeding all wheat plants (10replicates) were sprayed with respective test solutions. […] 6 days after application aphid mortality and phytotoxicity were evaluated. […] Additionally the average plant height per replicate was measured.

The subject of data set [2] is Nilaparvata lugens (brown plant hopper, BPH). The data set is described as follows: Activity against Nilaparvata lugens (brown plant hopper, BPH) on rice, spray with safeners, 7 d after application (Example B2). The class given is in vivo. The settings on record: 168 h. The method, then: Eight replicates (pots with rice plants) were sprayed with respective test solutions. Test solutions contained the formulated test compound and the safener cloquintocet and N-(2-methoxybenzoyl)-4-[(methylaminocarbonyl)amino]-benzenesulfonamide at different ratios. 4 pots were infested with plant hopper nymphs right after application. 7d after application BPH mortality and plant safety were evaluated. […] Assessment on plant safety was done by measuring the average plant height per replicate.

Structures are written as SMILES. Where two headings read alike, the source gives them in different places.

As for `CCOC(=O)OC1=C(c2cc(C)ccc2C)C(=O)N(C)C12CCN(OC)CC2` [Compound P1.1], the melting point is 96 to 110 °C.

As to `CCOC(=O)OC1=C(c2c(C)cc(C)cc2C)C(=O)N(CC)C12CCN(OC)CC2` [Compound P1.8], the melting point lay within 101 to 103 °C.

Compound `CCOC(=O)OC1=C(c2cc(C)c(C)cc2Br)C(=O)N(C)C12CCN(OC)CC2` [Compound P1.20] returned a melting point of 158 to 159 °C.

Regarding `CCOC(=O)OC1=C(c2cc(C)c(C)cc2Cl)C(=O)N(C)C12CCN(OC)CC2` [Compound P1.22], the melting point was in the range of 149 to 150 °C.

In the case of `CCOC(=O)OC1=C(c2c(C)cc(Cl)cc2C)C(=O)N(C)C12CCN(OC)CC2` [Compound P1.29], the mortality at 25 ppm in data set [1] (read-out: Efficacy (% mortality) against cereal aphids (Rhopalosiphum padi), test compound 25 ppm, adjuvant Mero 0.1% v/v, ratio AI:safener cell blank (no safener), wheat, 6 days after application, Abbott's formula) is 97%; in data set [1] (read-out: Efficacy (% mortality) against cereal aphids (Rhopalosiphum padi), test compound 25 ppm, adjuvant Mero 0.1% v/v, safener cloquintocet, ratio AI:safener 1:1, wheat, 6 days after application, Abbott's formula), 96.6%; in data set [1] (read-out: Efficacy (% mortality) against cereal aphids (Rhopalosiphum padi), test compound 25 ppm, adjuvant Mero 0.1% v/v, safener cloquintocet, ratio AI:safener 1:2, wheat, 6 days after application, Abbott's formula) it was 96.9%; in data set [2] (read-out: % mortality, corr., 25 ppm AI, Cloquintocet, ratio AI:safener 1.9:1, 7 d after application) it was 100%; in data set [2] (read-out: % mortality, corr., 25 ppm AI, Safener 2, ratio AI:safener 1.9:1, 7 d after application) it was 95%. Moreover, the mortality at 12.5 ppm in data set [2] (read-out: % mortality, corr., 12.5 ppm AI, Cloquintocet, ratio AI:safener 0.9:1, 7 d after application) was found to be 98%; in data set [2] (read-out: % mortality, corr., 12.5 ppm AI, Safener 2, ratio AI:safener 0.9:1, 7 d after application), 65%. In addition, the mortality at 50 ppm in data set [2] (read-out: % mortality, corr., 50 ppm AI, Safener 2, ratio AI:safener 1.25:1, 7 d after application) was 100%. Moreover, the mortality at 100 ppm in data set [2] (read-out: % mortality, corr., 100 ppm AI, Safener 2, ratio AI:safener 7.5:1, 7 d after application) stood at 100%. Moreover, in data set [2] (read-out: % mortality, corr., 200 ppm AI, Safener 2, ratio AI:safener 15:1, 7 d after application), the mortality at 200 ppm came to 100%.

Compound `COCON1C(=O)C(c2cc(C)ccc2C)=C(OC(=O)CC(C)(C)C)C12CCN(OC)CC2` [Compound P1ii.5] had a melting point of 93 to 95 °C.

Take `COCON1C(=O)C(c2cc(C)ccc2C)=C(OC)C12CCN(OC)CC2` [Compound P1ii.31]: the melting point fell in the range of 91 to 93 °C.

With `CCOC(=O)OC1=C(c2c(F)ccc(C)c2Cl)C(=O)N(OCOC)C12CCN(OC)CC2` [Compound P1ii.61], the melting point was in the range of 116 to 119 °C.

With `CCOC(=O)OC1=C(c2c(C)cc(Cl)cc2C)C(=O)N(OC)C12CCN(OC)CC2` [Compound P1ii.114], the melting point lay within 122 to 125 °C.

`CON1CCC2(CC1)C(O)=C(c1cc(C)ccc1C)C(=O)N2C` [Compound P2.1] returned a melting point of 121 to 123 °C.

In turn, `CON1CCC2(CC1)C(O)=C(c1c(C)cc(C)cc1C)C(=O)N2CC1CC1` [Compound P2.8, 1-Cyclopropylmethyl-4-hydroxy-8-methoxy-3-(2,4,6-trimethyl-phenyl)-1,8-diaza-spiro[4.5]dec-3-en-2-one] had a melting point of 223 to 225 °C.

In turn, `CCN1C(=O)C(c2c(C)cc(C)cc2C)=C(O)C12CCN(OC)CC2` [Compound P2.11] had a melting point of 218 to 221 °C.

The compound `CON1CCC2(CC1)C(O)=C(c1cc(C)c(C)cc1Br)C(=O)N2C` [Compound P2.23] displayed a melting point of 191 to 193 °C.

The compound `CON1CCC2(CC1)C(O)=C(c1cc(C)c(C)cc1C)C(=O)N2C` [Compound P2.25] had a melting point of 183 to 186 °C.

In turn, `CON1CCC2(CC1)C(O)=C(c1cc(C)c(C)cc1Cl)C(=O)N2C` [Compound P2.26, 3-(2-Chloro-4,5-dimethyl-phenyl)-4-hydroxy-8-methoxy-1-methyl-1,8-diaza-spiro[4.5]dec-3-en-2-one] gave a melting point of 191 to 192 °C.

For `CON1CCC2(CC1)C(O)=C(c1cc(Br)c(C)cc1C)C(=O)N2C` [Compound P2.28], the melting point was 182 to 183 °C.

On to `COCON1C(=O)C(c2c(C)cc(-c3ccc(Cl)cc3)cc2C)=C(O)C12CCN(OC)CC2` [Compound P2ii.15, 3-(4′-Chloro-3,5-dimethyl-biphenyl-4-yl)-4-hydroxy-8-methoxy-1-methoxymethoxy-1,8-diaza-spiro[4.5]dec-3-en-2-one], for which the melting point is 128 °C (dec.).

Consider `CON1CCC2(CC1)C(O)=C(c1c(C)cc(C)cc1C)C(=O)N2OCCOC1CCCCO1` (stereo not shown) [Compound P2ii.22], for which the melting point lay within 135 to 137 °C.

For `COCON1C(=O)C(c2c(F)ccc(C)c2Cl)=C(O)C12CCN(OC)CC2` [Compound P2ii.60], the melting point was 155 to 158 °C.

As for `COCCON1C(=O)C(c2cc(Br)c(C)cc2C)=C(O)C12CCN(OC)CC2` [Compound P2ii.73], the melting point lay in the range of 63 to 64 °C.

`CON1CCC2(CC1)C(O)=C(c1cc(Br)c(C)cc1C)C(=O)N2OC` [Compound P2ii.75] returned a melting point of 86 to 87 °C.

With `COCCON1C(=O)C(c2cc(Br)c(F)cc2C)=C(O)C12CCN(OC)CC2` [Compound P2ii.87], the melting point fell in the range of 71 to 74 °C.

Take `COCON1C(=O)C(c2cc(Br)c(F)cc2C)=C(O)C12CCN(OC)CC2` [Compound P2ii.89]: the melting point lay within 64 to 67 °C.

The compound `CON1CCC2(CC1)C(O)=C(c1c(C)cc(C)cc1C)C(=O)N2OCC1CCCCC1` [Compound P2ii.96] had a melting point of 169 to 172 °C.

As for `COCCON1C(=O)C(c2c(C)cc(Cl)cc2C)=C(O)C12CCN(OC)CC2` [Compound P2ii.101], the melting point lay in the range of 161 to 164 °C.

`CON1CCC2(CC1)C(O)=C(c1c(C)cc(Cl)cc1C)C(=O)N2OC` [Compound P2ii.102] returned a melting point of 88 to 92 °C.

The compound `COCON1C(=O)C(c2c(C)cc(Cl)cc2C)=C(O)C12CCN(OC)CC2` [Compound P2ii.104] came in with a melting point of 176 to 178 °C.

For the compound `CON1CCC2(CC1)C(O)=C(c1c(C)cc(Cl)cc1C)C(=O)N2OC1CCCO1` (stereo not shown) [Compound P2ii.105], the melting point lay within 137 to 139 °C.

The record behind these values is patent US9462808B2, “Pesticidal compositions” (Syngenta Participants AG, priority 2010, dated 2016).
